Measured values: patent US7816522B2, “Triazolone derivatives” (Eisai Co., Ltd., priority 2006, dated 2010)

Target: T1, human clotting factor VIIa (Homo sapiens, UniProt P08709)
T1 construct: a human clotting factor VIIa (hereinafter, “Factor VIIa”) purified sample; purchased Enzyme Research Laboratories HFVIIa
Experiment: Inhibitory activity against clotting factor VIIa (chromogenic substrate Spectrozyme FVIIa, TF/Factor VIIa enzyme solution)
Type: biochemical
Conditions: human Factor VIIa 5 nmol/L with human TF 10 nmol/L, room temperature 40 minutes, 405 nm
Procedure: [Inhibitory Activity Against Clotting Factor VIIa]
Dimethylsulfoxide (DMSO) solutions were prepared with compounds of the invention at concentration of 10 mmol/L (10 mmol/L compound solutions).
One packet of tris-hydroxymethylaminomethane-preset (hereinafter referred to as “Tris preset”) (Product of Sigma Corp., Catalog No. T8293), 8.8 g of sodium chloride (NaCl) and 1 g of bovine serum albumin (hereinafter abbreviated as “BSA”) were dissolved in 1 L of water to prepare a Tris-BSA buffer (100 mmol/L Tris, 0.15 mol/L NaCl, 0.1% BSA, pH 7.4).
This Tris-BSA buffer (180 μL) was added to the aforementioned 10 mmol/L compound solution (20 μL). A 10-fold dilution series was prepared for this mixture using the aforementioned Tris-BSA buffer, and solutions with the compound at concentrations of 1.0 mmol/L, 100, 10, 1, 0.1, 0.01 and 0.001 μmol/L were prepared (1.0 mmol-0.001 μmol/L compound solutions). As a control, a solution was prepared by 10-fold dilution of DMSO with the Tris-BSA buffer (hereinafter referred to as “control 10% solution”).
After dissolving one packet of Tris preset, NaCl (8.8 g) and BSA (1 g) in water (about 900 mL), there were added 1 mol/L aqueous calcium chloride (CaCl2) (15 mL) and 1 mg/mL aqueous cephalin (30 mL), and the total volume was brought to 1 L by adding water. To this solution there was added a human tissue factor (hereinafter, “TF”) sample (product of Calbiochem, Catalog No. 612151) (450 μg) to a TF sample concentration of 10 nmol/L, and then a human clotting factor VIIa (hereinafter, “Factor VIIa”) purified sample (product of Enzyme Research Laboratories, Catalog No. HFVIIa) (250 μg) was added to a Factor VIIa purified sample concentration of 5 nmol/L, to prepare an enzyme solution (100 mmol/L Tris-HCl, 0.15 mol/L NaCl, 15 mmol/L CaCl2, 30 μg/mL cephalin, 1 mg/mL BSA, 10 nmol/L TF, 5 nmol/L Factor VIIa).
To 110 μL of this enzyme solution there was added 15 μL of each of the 1.0 mmol-0.001 μmol/L compound solutions, and then 25 μL of a 1.0 mmol/L synthetic chromogenic substrate solution (Spectrozyme FVIIa, product of American Diagnostica, Catalog No. 217L) was added and the mixture was allowed to stand at room temperature for 40 minutes. Next, the amount of 4-nitroanilide released into the solution was quantitated by spectrophotometry (405 nm).
A control measurement was conducted in the same manner, using the control 10% solution instead of the compound solution.
This measurement yielded the enzyme reaction inhibition in the presence of 100 μmol/L to 0.1 nmol/L of each compound of the invention.
The enzyme reaction inhibition at each compound concentration was subjected to non-linear regression analysis, and the IC50 value for inhibitory activity of each compound against clotting factor VIIa was calculated.

T1 sequence (P08709 213-466 limits assumed): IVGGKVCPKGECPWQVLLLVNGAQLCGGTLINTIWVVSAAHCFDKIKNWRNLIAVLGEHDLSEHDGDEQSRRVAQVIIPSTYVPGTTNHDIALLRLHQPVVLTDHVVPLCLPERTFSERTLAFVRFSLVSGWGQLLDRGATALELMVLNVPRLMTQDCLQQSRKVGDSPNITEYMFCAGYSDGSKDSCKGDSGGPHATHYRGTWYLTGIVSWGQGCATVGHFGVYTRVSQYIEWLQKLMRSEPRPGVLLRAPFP
T1 sequence (P08709 61-212 limits assumed): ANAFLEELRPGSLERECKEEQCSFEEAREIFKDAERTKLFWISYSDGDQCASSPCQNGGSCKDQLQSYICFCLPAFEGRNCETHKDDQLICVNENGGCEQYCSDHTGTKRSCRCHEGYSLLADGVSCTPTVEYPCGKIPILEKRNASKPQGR
T1 sequence (P13726 33-295 partner): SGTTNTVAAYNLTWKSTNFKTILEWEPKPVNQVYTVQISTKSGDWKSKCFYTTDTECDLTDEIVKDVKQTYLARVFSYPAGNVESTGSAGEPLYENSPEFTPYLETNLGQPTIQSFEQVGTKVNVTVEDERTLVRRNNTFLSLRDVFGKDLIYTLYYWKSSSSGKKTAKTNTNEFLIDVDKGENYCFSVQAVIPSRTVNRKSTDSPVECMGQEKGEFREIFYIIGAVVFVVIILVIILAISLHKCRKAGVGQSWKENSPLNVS

SMILES	IC50 [nM]
COc1cc(C(Nc2ccc(C(=N)N)cc2)c2nn(-c3ccccc3C(=O)O)c(=O)[nH]2)cc(C)n1 (racemic) [Example 38, (R) and (S)-2-{3-[(4-carbamimidoylphenylamino)-(2-methoxy-6-methylpyridin-4-yl)methyl]-5-oxo-4,5-dihydro-[1,2,4]triazol-1-yl}benzoic acid acetate]	7.4
COc1cc(C(Nc2ccc(C(=N)N)cc2)c2nn(-c3ncccn3)c(=O)[nH]2)cc(C)n1 (racemic) [Example 39, (R) and (S)-4-{[(2-methoxy-6-methyl-pyridin-4-yl)-(5-oxo-1-pyrimidin-2-yl-4,5-dihydro-1H-[1,2,4]triazol-3-yl)methyl]amino}benzamidine acetate]	20.6
COc1cc(C(Nc2ccc(C(=N)N)cc2)c2nn(-c3ncccn3)c(=O)[nH]2)c(F)c2c1OCC2 (racemic) [Example 40, (R) and (S)-4-{[(4-fluoro-7-methoxy-2,3-dihydrobenzofuran-5-yl)-(5-oxo-1-pyrimidin-2-yl-4,5-dihydro-1H-[1,2,4]triazol-3-yl)methyl]amino}benzamidine acetate]	9
COc1cc(C(Nc2ccc(C(=N)N)cc2)c2nn(-c3ncccn3)c(=O)[nH]2)c(F)c2c1OCCO2 (racemic) [Example 41, (R) and (S)-4-{[(5-fluoro-8-methoxy-2,3-dihydrobenzo[1,4]dioxin-6-yl)-(5-oxo-1-pyrimidin-2-yl-4,5-dihydro-1H-[1,2,4]triazol-3-yl)methyl]amino}benzamidine acetate]	6.4
COc1cc(C(Nc2ccc(C(=N)N)cc2)c2nn(-c3ncccn3)c(=O)[nH]2)c(F)c2c1OCCCO2 (racemic) [Example 42, (R) and (S)-4-{[(6-fluoro-9-methoxy-3,4-dihydro-2H-benzo[b][1,4]dioxepin-7-yl)-(5-oxo-1-pyrimidin-2-yl-4,5-dihydro-1H-[1,2,4]triazol-3-yl)methyl]amino}benzamidine acetate]	3.6
Cc1cc(OC2CCN(C)CC2)cc(C(Nc2ccc(C(=N)N)cc2)c2nn(-c3ncccn3)c(=O)[nH]2)c1 (racemic) [Example 43, (R) and (S)-4-({[3-methyl-5-(1-methylpiperidin-4-yloxy)phenyl]-(5-oxo-1-pyrimidin-2-yl-4,5-dihydro-1H-[1,2,4]triazol-3-yl)methyl}amino)benzamidine diacetate]	7.9
Cc1cc(OCC(=O)N(C)C)cc(C(Nc2ccc(C(=N)N)cc2)c2nn(-c3ncccn3)c(=O)[nH]2)c1 (racemic) [Example 44, (R) and (S)-2-{3-[(4-carbamimidoylphenylamino)-(5-oxo-1-pyrimidin-2-yl-4,5-dihydro-1H-[1,2,4]triazol-3-yl)methyl]-5-methylphenoxy}-N,N-dimethylacetamide acetate]	25.7
C=Cc1cc(O[C@H]2CCOC2)cc(C(Nc2ccc(C(=N)N)cc2)c2nn(-c3ncccn3)c(=O)[nH]2)c1 (mixture of isomers) [Example 45(1), 4-[((R) and (S)-(5-oxo-1-pyrimidin-2-yl-4,5-dihydro-1H-[1,2,4]triazol-3-yl)-{3-[(S)-(tetrahydrofuran-3-yl)oxy]-5-vinylphenyl}methyl)amino]benzamidine acetate]	1.3
C#Cc1cc(O[C@H]2CCOC2)cc(C(Nc2ccc(C(=N)N)cc2)c2nn(-c3ncccn3)c(=O)[nH]2)c1 (mixture of isomers) [Example 45(2), 4-[((R) and (S)-{3-ethynyl-5-[(S)-(tetrahydrofuran-3-yl)oxy]phenyl}-(5-oxo-1-pyrimidin-2-yl-4,5-dihydro-1H-[1,2,4]triazol-3-yl)methyl)amino]benzamidine acetate]	1.5
C=Cc1cc(OCCO)cc(C(Nc2ccc(C(=N)N)cc2)c2nn(-c3ncccn3)c(=O)[nH]2)c1 (racemic) [Example 46, (R) and (S)-4-({[3-(2-hydroxyethoxy)-5-vinylphenyl]-(5-oxo-1-pyrimidin-2-yl-4,5-dihydro-1H-[1,2,4]triazol-3-yl)methyl}amino)benzamidine acetate]	3.8
